The text below walks through data of article PMC11684029, “Discovery of VU6024578/BI02982816: An mGlu1 Positive Allosteric Modulator with Efficacy in Preclinical Antipsychotic and Cognition Models” (Journal of Medicinal Chemistry, 2024).

The subject of data set [1] is C57BL/6JRj mice. The data set is described as follows: 40 Hz ASSR, MK-801 induced deficit. In kind it is in vivo. The note with it: mouse. From the text:
We have also employed here event-related potentials (ERPs) and auditory-evoked oscillations, which serve as critical translational biomarkers, to assess the impact of our investigational drug on sensory processing and cognitive functions, providing valuable data on its potential efficacy in treating disorders like schizophrenia. Detailed description of the methodology, setup specifications and recording procedure and analysis of the 40 Hz auditory steady-state response (ASSR) protocol can be found in Schuelert et al.[27] […] Reduced entrainment of gamma oscillation reflects abnormalities in basic sensory registration and processing but is also associated with impaired higher cognitive functions.[32] ASSR can also be reliably impaired preclinically by different NMDA receptor antagonists.[33],[34] […] Abnormalities associated with the filtering or “gating” of sensory information are among the most consistent findings in schizophrenia research.[35] N100 gating deficits also correlated with negative-cognitive deficits dimensions of schizophrenia[36] and can be modeled preclinically with NMDA receptor antagonists.[37]19d reversed N1 sensory gating deficit induced by MK-801 with the highest dose of 10 mg/kg (Figure 12B). Mean plasma exposures in satellite mice after subcutaneous administration of 19d at 0.8, 4, and 10 mg/kg were 187, 1207, and 2490 nM, respectively.
The mGlu2/3 selective agonist LY379268 was used here as a positive control, applied also s.c. at 3 mg/kg dose. […] Data are shown as mean ± SEM (n = 13–19 for each treatment group). *P < 0.05, **P < 0.01, ***P < 0.005 compared with vehicle; #P < 0.05, ##P < 0.01 compared with MK-801. […]
Mice were placed in a plexiglass cage in an attenuated sound box and allowed to adapt to their environment for 20 min before subcutaneous administration of VU6024578 0.8, 4, and 10 mg/kg or vehicle (20% HP-β-CD in water). […] An infrared sensor on the Neurologger recorded the infrared trigger signals and trigger signals were saved in an individual trigger channel. […]

Data set [2] deals with rat mGlu1 (Rattus norvegicus, UniProt P23385). The data set is described as follows: mGlu1 calcium mobilization PAM assay. In kind it is cell-based.
The target in data set [3] is T1, norepinephrine transporter (Homo sapiens, UniProt P23975).
T1 construct: Eurofins
The data set is described as follows: Eurofins radioligand binding panel. The note with it: antagonist radioligand. An excerpt:
(§1) Table S1. Eurofins Lead Profiling Screen Data
(§2) This is a radioligand binding panel of 80 targets including GPCRs, ion channels, transporters and nuclear hormones. Biochemical assay results are presented as the percent inhibition of specific […]
(§3) Results showing an inhibition or stimulation higher than 50% are considered to represent significant effect and are highlighted

The target in data set [4] is T2, D4.4 (Homo sapiens, UniProt P21917).
T2 construct: Eurofins (panel run as a service)
The data set is described as follows: Eurofins radioligand binding panel. The note with it: antagonist radioligand.
From the text: as §1, §2, §3

For data set [5], the target named is T3, Y1 (Homo sapiens, UniProt P25929).
T3 construct: Eurofins
As to the kind of experiment: Eurofins radioligand binding panel. The note with it: agonist radioligand.
From the text: as §1, §2, §3

The target of data set [6] is T4, GAL1 (Homo sapiens, UniProt P47211).
T4 construct: Eurofins (panel run as a service)
The data set is described as follows: Eurofins radioligand binding panel. The conditions noted are these: agonist radioligand.
From the text: as §1, §2, §3

Data set [7] addresses T5, M1 (Homo sapiens, UniProt P11229).
T5 construct: Eurofins
The data set is described as follows: Eurofins radioligand binding panel. The conditions noted are these: antagonist radioligand.
From the text: as §1, §2, §3

Data set [8] concerns the target T6, D3 (Homo sapiens, UniProt P35462).
T6 construct: Eurofins (panel run as a service)
As to the kind of experiment: Eurofins radioligand binding panel. The conditions noted are these: antagonist radioligand.
From the text: as §1, §2, §3

A short description of data set [9]: brain exposure in rat AHL Cmax versus Ctrough study. The class given is in vivo. As to the method:
Based on these positive behavioral data and the clear PK/PD relationship tied to achieving free brain levels at, or above, the mGlu1 PAM EC50, we next wanted to define the role of Cmax versus Ctrough drug (19d) concentrations in driving the PK/PD relationship. To accomplish this, pretreatment times and doses were calculated based upon previous PK (see Supporting Information Figure S3)[20] data to target free brain concentrations at and below the in vitro EC50 at the time of amphetamine challenge. Rats were pretreated with 3 mg/kg 19d or vehicle after habituation to the locomotor chambers are described in Figure 9A. Rats pretreated with 19d (10–60 mg/kg) or vehicle were administered compound prior to starting the amphetamine-induced hyperlocomotion experiment as depicted in Figure 9B-D. Ambulations were evaluated for 90 min post amphetamine treatment for all dosing groups. Pretreatment of 19d, chamber habituation, amphetamine treatment and ambulation recording times are outlined for each dosing group in Figure 9. Blood and brain samples were obtained at the end of testing (EOT) to determine 19d levels at the end of the study (Table 6).
The terminal free brain concentrations for this dosing group were 40 nM. […]

The target in data set [10] is T7, CCK2 (CCKB) (Homo sapiens, UniProt P32239).
T7 construct: Eurofins (panel run as a service)
As to the kind of experiment: Eurofins radioligand binding panel. The conditions noted are these: agonist radioligand.
From the text: as §1, §2
Results showing an inhibition or stimulation higher than 50% are considered to represent significant effect and are highlighted […]
Target / Protein Species % Inhibition at 10 […]
CCK2 (CCKB) (agonist radioligand) human -4

rat mGlu1, sequence (P23385 19-1199): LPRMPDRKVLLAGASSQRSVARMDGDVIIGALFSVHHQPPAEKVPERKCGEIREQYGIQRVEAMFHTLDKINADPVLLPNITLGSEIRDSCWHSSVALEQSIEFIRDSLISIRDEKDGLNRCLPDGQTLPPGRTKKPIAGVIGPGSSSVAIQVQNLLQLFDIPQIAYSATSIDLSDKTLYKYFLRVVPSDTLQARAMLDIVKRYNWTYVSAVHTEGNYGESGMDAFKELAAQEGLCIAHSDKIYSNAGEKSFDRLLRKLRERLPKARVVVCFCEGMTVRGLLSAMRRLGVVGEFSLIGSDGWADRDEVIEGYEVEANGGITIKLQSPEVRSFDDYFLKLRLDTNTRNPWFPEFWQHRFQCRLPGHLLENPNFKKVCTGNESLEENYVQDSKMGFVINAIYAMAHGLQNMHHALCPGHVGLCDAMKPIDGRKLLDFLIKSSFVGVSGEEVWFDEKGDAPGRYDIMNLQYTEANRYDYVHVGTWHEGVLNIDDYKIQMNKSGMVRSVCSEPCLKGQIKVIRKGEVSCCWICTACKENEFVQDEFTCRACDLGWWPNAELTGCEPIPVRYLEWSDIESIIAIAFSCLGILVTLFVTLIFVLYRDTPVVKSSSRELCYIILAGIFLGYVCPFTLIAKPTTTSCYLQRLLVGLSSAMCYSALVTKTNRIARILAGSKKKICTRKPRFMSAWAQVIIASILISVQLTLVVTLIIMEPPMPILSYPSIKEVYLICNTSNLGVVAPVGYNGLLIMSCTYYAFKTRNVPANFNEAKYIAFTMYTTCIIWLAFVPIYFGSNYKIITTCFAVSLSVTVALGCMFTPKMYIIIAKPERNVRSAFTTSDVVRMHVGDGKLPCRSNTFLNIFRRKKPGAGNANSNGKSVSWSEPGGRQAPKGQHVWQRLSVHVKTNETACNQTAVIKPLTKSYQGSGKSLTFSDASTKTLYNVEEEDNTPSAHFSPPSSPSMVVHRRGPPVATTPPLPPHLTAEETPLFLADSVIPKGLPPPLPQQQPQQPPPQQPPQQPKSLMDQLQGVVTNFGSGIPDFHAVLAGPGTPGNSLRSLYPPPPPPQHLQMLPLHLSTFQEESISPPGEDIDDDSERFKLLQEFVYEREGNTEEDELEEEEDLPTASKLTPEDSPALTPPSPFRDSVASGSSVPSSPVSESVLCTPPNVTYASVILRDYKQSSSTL
T5 sequence (P11229 whole entry): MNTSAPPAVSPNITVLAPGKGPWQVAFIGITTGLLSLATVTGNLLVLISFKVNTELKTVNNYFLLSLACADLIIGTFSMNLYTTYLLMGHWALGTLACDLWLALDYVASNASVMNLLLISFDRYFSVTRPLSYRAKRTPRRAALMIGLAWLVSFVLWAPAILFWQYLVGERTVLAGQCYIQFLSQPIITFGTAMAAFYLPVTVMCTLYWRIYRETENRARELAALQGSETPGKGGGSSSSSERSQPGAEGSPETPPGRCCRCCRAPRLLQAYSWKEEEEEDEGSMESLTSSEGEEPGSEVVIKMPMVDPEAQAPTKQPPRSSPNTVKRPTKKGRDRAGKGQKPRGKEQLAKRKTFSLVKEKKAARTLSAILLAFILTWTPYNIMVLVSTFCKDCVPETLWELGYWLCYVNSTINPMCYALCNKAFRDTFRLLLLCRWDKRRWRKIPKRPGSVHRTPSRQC
T4 sequence (P47211 whole entry): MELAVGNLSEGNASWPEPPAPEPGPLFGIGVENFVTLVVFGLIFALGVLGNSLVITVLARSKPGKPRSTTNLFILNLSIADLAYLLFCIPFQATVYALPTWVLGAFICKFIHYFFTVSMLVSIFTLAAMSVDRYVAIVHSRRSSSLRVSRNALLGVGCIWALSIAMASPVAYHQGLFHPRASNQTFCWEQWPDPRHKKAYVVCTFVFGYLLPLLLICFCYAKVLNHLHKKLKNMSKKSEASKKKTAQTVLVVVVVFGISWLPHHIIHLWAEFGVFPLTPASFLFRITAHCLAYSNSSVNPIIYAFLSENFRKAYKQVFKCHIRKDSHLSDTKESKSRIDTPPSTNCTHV
T3 sequence (P25929 whole entry): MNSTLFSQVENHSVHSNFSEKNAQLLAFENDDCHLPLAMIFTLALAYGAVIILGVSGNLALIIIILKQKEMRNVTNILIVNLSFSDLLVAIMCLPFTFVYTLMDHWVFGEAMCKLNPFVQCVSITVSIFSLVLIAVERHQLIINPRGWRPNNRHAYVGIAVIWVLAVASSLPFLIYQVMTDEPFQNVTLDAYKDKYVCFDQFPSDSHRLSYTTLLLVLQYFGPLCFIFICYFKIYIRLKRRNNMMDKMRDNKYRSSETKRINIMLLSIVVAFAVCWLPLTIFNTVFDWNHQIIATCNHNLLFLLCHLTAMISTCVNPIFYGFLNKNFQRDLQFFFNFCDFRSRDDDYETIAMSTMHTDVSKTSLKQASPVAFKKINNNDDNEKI
T6 sequence (P35462 whole entry): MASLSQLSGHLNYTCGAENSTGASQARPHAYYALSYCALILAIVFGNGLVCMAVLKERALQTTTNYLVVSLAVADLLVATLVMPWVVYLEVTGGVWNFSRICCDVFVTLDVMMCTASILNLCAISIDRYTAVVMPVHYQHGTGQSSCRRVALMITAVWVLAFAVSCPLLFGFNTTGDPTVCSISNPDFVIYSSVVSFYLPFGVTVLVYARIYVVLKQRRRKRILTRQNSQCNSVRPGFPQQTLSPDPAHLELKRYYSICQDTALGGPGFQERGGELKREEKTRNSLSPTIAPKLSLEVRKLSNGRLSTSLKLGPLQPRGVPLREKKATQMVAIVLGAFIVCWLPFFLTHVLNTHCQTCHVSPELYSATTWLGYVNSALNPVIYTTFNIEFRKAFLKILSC
T2 sequence (P21917 whole entry): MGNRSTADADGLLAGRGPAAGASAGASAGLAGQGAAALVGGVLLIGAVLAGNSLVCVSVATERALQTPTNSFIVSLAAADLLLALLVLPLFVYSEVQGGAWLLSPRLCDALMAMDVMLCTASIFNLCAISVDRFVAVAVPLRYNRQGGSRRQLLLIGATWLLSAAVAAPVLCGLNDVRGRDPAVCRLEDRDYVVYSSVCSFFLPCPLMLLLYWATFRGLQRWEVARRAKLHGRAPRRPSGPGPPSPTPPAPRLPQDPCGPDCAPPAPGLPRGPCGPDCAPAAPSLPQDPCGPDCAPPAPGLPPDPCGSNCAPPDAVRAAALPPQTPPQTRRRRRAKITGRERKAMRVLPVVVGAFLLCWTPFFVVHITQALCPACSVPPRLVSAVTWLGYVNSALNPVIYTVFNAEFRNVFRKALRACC
T7 sequence (P32239 whole entry): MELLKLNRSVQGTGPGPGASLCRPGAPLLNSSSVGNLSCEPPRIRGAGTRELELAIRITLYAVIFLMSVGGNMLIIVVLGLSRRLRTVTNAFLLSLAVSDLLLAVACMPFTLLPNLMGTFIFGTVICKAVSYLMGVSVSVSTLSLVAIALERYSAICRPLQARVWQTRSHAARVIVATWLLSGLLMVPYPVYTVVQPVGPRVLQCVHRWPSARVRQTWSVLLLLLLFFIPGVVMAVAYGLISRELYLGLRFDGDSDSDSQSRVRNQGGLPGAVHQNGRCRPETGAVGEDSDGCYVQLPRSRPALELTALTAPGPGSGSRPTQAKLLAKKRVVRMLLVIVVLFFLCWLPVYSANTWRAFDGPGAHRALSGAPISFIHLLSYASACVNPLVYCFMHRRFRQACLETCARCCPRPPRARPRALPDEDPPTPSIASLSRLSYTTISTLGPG
T1 sequence (P23975 whole entry): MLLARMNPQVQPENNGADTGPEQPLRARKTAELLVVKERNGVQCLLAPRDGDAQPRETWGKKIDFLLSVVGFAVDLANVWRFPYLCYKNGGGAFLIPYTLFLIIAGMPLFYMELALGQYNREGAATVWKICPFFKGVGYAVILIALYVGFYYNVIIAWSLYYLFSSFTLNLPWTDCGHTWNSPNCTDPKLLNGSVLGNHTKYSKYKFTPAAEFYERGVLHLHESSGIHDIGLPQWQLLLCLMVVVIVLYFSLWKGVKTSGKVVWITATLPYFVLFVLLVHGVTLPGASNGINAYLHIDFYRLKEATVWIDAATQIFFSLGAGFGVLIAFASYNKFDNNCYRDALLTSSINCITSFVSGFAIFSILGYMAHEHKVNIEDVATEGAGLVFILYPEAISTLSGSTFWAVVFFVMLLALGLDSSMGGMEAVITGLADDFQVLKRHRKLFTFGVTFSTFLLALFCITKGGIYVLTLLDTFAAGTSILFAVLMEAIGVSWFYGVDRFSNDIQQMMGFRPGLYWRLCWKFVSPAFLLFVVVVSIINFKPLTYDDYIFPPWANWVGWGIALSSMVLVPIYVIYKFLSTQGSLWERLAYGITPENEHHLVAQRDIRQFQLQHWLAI

As for `Cn1nc(-c2ccnn2C)cc1CNC(=O)c1cc(-c2ccco2)ccc1Cl` [Compound 19d, 2-Chloro-N-((1,2′-dimethyl-1H,2’H-[3,3′-bipyrazol]-5-yl)methyl)-5-(furan-2-yl)benzamide], the “reversal of MK-801 deficit in 40 Hz ASSR intertrial coherence (PFC)” value in data set [1] (0.8 mg/kg s.c.) is “no significant effect”; in data set [1] (4 mg/kg s.c.), “complete reversal”; in data set [1] (10 mg/kg s.c.) it was “complete reversal”. Further, in data set [2] (PAM, calcium flux), the EC50 was 0.046 µM. The “rat mGlu1 Glumax” value in data set [2] (PAM, calcium flux) turned out to be 124%. In [2] (n = 110), the “rat mGlu1 pEC50” value was 7.39 ± 0.02. Further, the inhibition at 10 µM is 11% in data set [3]; 22% in [4]; -7% in [5]; -4% in [6]; 14% in data set [7]; -6% in data set [8]. In addition, the inhibition at 10 µM in data set [10] was -4%. Further, in data set [9] (60 mg/kg, at Tmax), the “Cmax over rat in vitro potency” value came to 6.8 fold. In addition, the concentration at 2.5 h in data set [9] (Sprague-Dawley, brain, oral, 3 mg/kg, pretreatment time 2.5 hr, read-out: Brain Unbound @EOT) worked out at 0.04 µM. For the same compound, the concentration at 6.5 h in [9] (Sprague-Dawley, brain, oral, 10 mg/kg, pretreatment time 6.5 hr, read-out: Brain Unbound @EOT) is 0.044 µM. Further, in [9] (Sprague-Dawley, brain, oral, 60 mg/kg, pretreatment time 15 hr, read-out: Brain Unbound @EOT), the concentration at 15 h came out at 0.003 µM. Also, the concentration at 30 h in data set [9] (Sprague-Dawley, brain, oral, 60 mg/kg, pretreatment time 30 hr, read-out: Brain Unbound @EOT) was determined as 0.006 µM.
